In patent US20240158446A1, “CYCLIC COMPOUND HAVING SELECTIVE INHIBITORY ACTION ON KRAS OVER HRAS AND NRAS” (CHUGAI SEIYAKU KABUSHIKI KAISHA, priority 2021, published 2024):

What was measured:
[1] = target: GDP-bound NRAS wild-type protein (Homo sapiens, UniProt P01111); experiment: Binding to NRAS by surface plasmon resonance (SPR), Single Cycle Kinetics; settings: SPR, GDP-bound NRAS wild-type protein vs GDP-bound KRAS wild-type protein
[2] = target: GDP-bound HRAS wild-type protein (Homo sapiens, UniProt P01112); experiment: Binding to HRAS by surface plasmon resonance (SPR), Single Cycle Kinetics; settings: SPR, GDP-bound HRAS wild-type protein vs GDP-bound KRAS wild-type protein
GDP-bound HRAS wild-type protein, sequence (P01112 whole entry): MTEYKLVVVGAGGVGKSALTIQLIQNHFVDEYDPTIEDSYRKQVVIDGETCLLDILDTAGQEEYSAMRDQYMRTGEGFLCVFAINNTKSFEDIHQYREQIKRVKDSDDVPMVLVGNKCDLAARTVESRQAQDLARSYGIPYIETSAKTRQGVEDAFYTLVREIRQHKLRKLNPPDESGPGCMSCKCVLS

GDP-bound NRAS wild-type protein, sequence (P01111 whole entry): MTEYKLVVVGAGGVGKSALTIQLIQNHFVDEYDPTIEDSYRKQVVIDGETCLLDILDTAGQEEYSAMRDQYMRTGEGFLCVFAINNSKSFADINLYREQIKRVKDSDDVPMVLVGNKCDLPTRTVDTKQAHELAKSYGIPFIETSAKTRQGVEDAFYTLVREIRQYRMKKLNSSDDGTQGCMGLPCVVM

SMILES	NRAS/KRAS (ratio of KD value for NRAS to KD value for KRAS) [1]	HRAS/KRAS (ratio of KD value for HRAS to KD value for KRAS) [2]	NRAS/KRAS (ratio of KD value for NRAS to KD value for KRAS) ([1]; KD ratio class)	HRAS/KRAS (ratio of KD value for HRAS to KD value for KRAS) ([2]; KD ratio class)
CCO[C@@H]1C[C@H]2C(=O)NC3(CCCC3)C(=O)N(C)[C@@H](C3CCCC3)C(=O)N(C)[C@H](C(=O)N(C)C)CC(=O)N(C)[C@@H](CC(C)C)C(=O)N[C@@H]([C@@H](C)CC)C(=O)N(C)CC(=O)N(C)[C@H]3C/C=C\CCN(C3=O)[C@@H](Cc3ccc(C(F)(F)F)cc3)C(=O)N(C)CC(=O)N[C@@H](CCc3cc(F)c(C(F)(F)F)c(F)c3)C(=O)N2C1 [PP1105, (2S,8S,12R,14S,20S,23S,27S,30S,36S,38Z)-20-cyclopentyl-8-[2-[3,5-difluoro-4-(trifluoromethyl)phenyl]ethyl]-12-ethoxy-27-isobutyl-N,N,4,19,22,26,32,35-octamethyl-30-[(1S)-1-methylpropyl]-3,6,9,15,18,21,25,28,31,34,42-undecaoxo-2-[[4-(trifluoromethyl)phenyl]methyl]spiro[1,4,7,10,16,19,22,26,29,32,35-undecazatricyclo[34.5.1.0^10,14]dotetracont-38-ene-17,1′-cyclopentane]-23-carboxamide]	A (a compound having 10 or more and less than 20 is denoted as A)	A (a compound having 10 or more and less than 20 is denoted as A)		
CC[C@H](C)[C@@H]1NC(=O)[C@H](CC(C)C)N(C)C(=O)C[C@@H](C(=O)N2C[C@@H](C)O[C@@H](C)C2)N(C)C(=O)[C@H](C2CCCC2)N(C)C(=O)C2(CCCC2)NC(=O)[C@@H]2CCCN2C(=O)[C@H](CCc2ccc(C(F)(F)F)c(Cl)c2)NC(=O)CN(C)C(=O)[C@H](Cc2ccc(F)cc2)N2CCCCC[C@@H](C2=O)N(C)C(=O)CN(C)C1=O [PP1151]	B (a compound having 3 or more and less than 10 is denoted as B)	B (a compound having 3 or more and less than 10 is denoted as B)		
CCO[C@@H]1C[C@H]2C(=O)NC3(CCC3)C(=O)N(C)[C@@H](C3CCCC3)C(=O)N(C)[C@H](C(=O)N(CC)CC)CC(=O)N(C)[C@@H](CC(F)F)C(=O)N[C@@H]([C@@H](C)CC)C(=O)N(C)CC(=O)N(C)[C@H]3C/C=C\CCN(C3=O)[C@@H](Cc3ccc(C(F)(F)F)cc3)C(=O)N(C)CC(=O)N[C@@H](CCc3cc(F)c(C(F)(F)F)c(F)c3)C(=O)N2C1 [PP1309]			A (a compound having 10 or more and less than 20 is denoted as A)	A (a compound having 10 or more and less than 20 is denoted as A)
CCO[C@@H]1C[C@H]2C(=O)NC3(CCC3)C(=O)N(C)[C@@H](C3CCCC3)C(=O)N(C)[C@H](C)CC(=O)N(C)[C@@H](CC3CC3)C(=O)N[C@@H]([C@@H](C)CC)C(=O)N(C)CC(=O)N(C)[C@H]3C/C=C\CCN(C3=O)[C@@H](Cc3ccc(F)cc3C)C(=O)N(C)CC(=O)N[C@@H](CCc3cc(F)c(C(F)(F)F)c(F)c3)C(=O)N2C1 [PP1489]			B (a compound having 3 or more and less than 10 is denoted as B)	B (a compound having 3 or more and less than 10 is denoted as B)
CCO[C@@H]1C[C@H]2C(=O)NC3(CCC3)C(=O)N(C)[C@@H](C3CCCC3)C(=O)N(C)[C@H](C)CC(=O)N(C)[C@@H](CC3CCCC3)C(=O)N[C@@H]([C@@H](C)CC)C(=O)N(C)CC(=O)N(C)[C@H]3C/C=C\CCN(C3=O)[C@@H](Cc3ccc(F)cc3)C(=O)N(C)CC(=O)N[C@@H](CCc3cc(F)c(C(F)(F)F)c(F)c3)C(=O)N2C1 [PP1492]			B (a compound having 3 or more and less than 10 is denoted as B)	B (a compound having 3 or more and less than 10 is denoted as B)
CCO[C@@H]1C[C@H]2C(=O)NC3(CCC3)C(=O)N(C)[C@@H](C3CCCC3)C(=O)N(C)[C@H](C)CC(=O)N(C)[C@@H](CC(C)C)C(=O)N[C@@H]([C@@H](C)CC)C(=O)N(C)CC(=O)N(C)[C@H]3C/C=C\CCN(C3=O)[C@@H](Cc3ccc(F)cc3C)C(=O)N(C)CC(=O)N[C@@H](CCc3cc(F)c(C(F)(F)F)c(F)c3)C(=O)N2C1 [PP1493]			B (a compound having 3 or more and less than 10 is denoted as B)	B (a compound having 3 or more and less than 10 is denoted as B)
CCO[C@@H]1C[C@H]2C(=O)NC3(CCC3)C(=O)N(C)[C@@H](C3CCCC3)C(=O)N(C)[C@H](C)CC(=O)N(C)[C@@H](CC(C)C)C(=O)N[C@@H]([C@@H](C)CC)C(=O)N(C)CC(=O)N(C)[C@H]3C/C=C\CCN(C3=O)[C@@H](Cc3ccc(F)cc3)C(=O)N(C)CC(=O)N[C@@H](CCc3cc(F)c(C(F)(F)F)c(F)c3)C(=O)N2C1 [PP1494]			B (a compound having 3 or more and less than 10 is denoted as B)	B (a compound having 3 or more and less than 10 is denoted as B)
CCO[C@@H]1C[C@H]2C(=O)NC3(CCC3)C(=O)N(C)[C@@H](C3CCCC3)C(=O)N(C)[C@H](C(=O)N3CCOCC3)CC(=O)N(C)[C@@H](CC3CC3)C(=O)N[C@@H]([C@@H](C)CC)C(=O)N(C)CC(=O)N(C)[C@H]3C/C=C\CCN(C3=O)[C@@H](Cc3ccc(F)cc3C)C(=O)N(C)CC(=O)N[C@@H](CCc3cc(F)c(C(F)(F)F)c(F)c3)C(=O)N2C1 [PP1495]			A (a compound having 10 or more and less than 20 is denoted as A)	B (a compound having 3 or more and less than 10 is denoted as B)
CC[C@H](C)[C@@H]1NC(=O)[C@H](CC2CCCC2)N(C)C(=O)C[C@@H](C(=O)N(C)C)N(C)C(=O)[C@H](C2CCCC2)N(C)C(=O)C2(CCC2)NC(=O)[C@@H]2C[C@@H](C(F)(F)F)CN2C(=O)[C@H](CCc2cc(F)c(C(F)(F)F)c(F)c2)NC(=O)CN(C)C(=O)[C@H](Cc2ccc(F)cc2)N2CC/C=C\C[C@@H](C2=O)N(C)C(=O)CN(C)C1=O [PP1508]			A (a compound having 10 or more and less than 20 is denoted as A)	A (a compound having 10 or more and less than 20 is denoted as A)
CC[C@H](C)[C@@H]1NC(=O)[C@H](CC2CC2)N(C)C(=O)C[C@@H](C(=O)N2CCCC2)N(C)C(=O)[C@H](C2CCCC2)N(C)C(=O)C2(CCCC2)NC(=O)[C@@H]2C[C@@H](C(F)(F)F)CN2C(=O)[C@H](CCc2cc(F)c(C(F)(F)F)c(F)c2)NC(=O)CN(C)C(=O)[C@H](Cc2ccc(F)cc2)N2CC/C=C\C[C@@H](C2=O)N(C)C(=O)CN(C)C1=O [PP1509]			A (a compound having 10 or more and less than 20 is denoted as A)	A (a compound having 10 or more and less than 20 is denoted as A)
CCO[C@@H]1C[C@H]2C(=O)NC3(CCC3)C(=O)N(C)[C@@H](C(CC)CC)C(=O)N(C)[C@H](C(=O)N(C)C)CC(=O)N(C)[C@@H](CC3CC3)C(=O)N[C@@H]([C@@H](C)CC)C(=O)N(C)CC(=O)N(C)[C@H]3C/C=C\CCN(C3=O)[C@@H](Cc3ccc(F)cc3C)C(=O)N(C)CC(=O)N[C@@H](CCc3cc(F)c(C(F)(F)F)c(F)c3)C(=O)N2C1 [PP1514]			A (a compound having 10 or more and less than 20 is denoted as A)	A (a compound having 10 or more and less than 20 is denoted as A)
